Measured values reported in US8927717B1, “Thiochromeno[2,3-c]quinolin-12-one derivatives, preparation method and application thereof” (National Defense Medical Center, priority 2014, dated 2015).

Assays:
Assay type in all cases: cell-based
NCI-H522 = conditions: 10^−5 molar; for Growth percent: NCI-H522
SK-MEL-5 = conditions: 10^−5 molar; for Growth percent: SK-MEL-5
UO-31 = conditions: 10^−5 molar; for Growth percent: UO-31
T-47D = conditions: 10^−5 molar; for Growth percent: T-47D
MDA-MB-231/ATCC = conditions: 10^−5 molar; for Growth percent: MDA-MB-231/ATCC
NCI-H460 = conditions: 10^−5 molar; for Growth percent: NCI-H460
OVCAR-8 = conditions: 10^−5 molar; for Growth percent: OVCAR-8
M14 = conditions: 10^−5 molar; for Growth percent: M14
HOP-62 = conditions: 10^−5 molar; for Growth percent: HOP-62
SK-OV-3 = conditions: 10^−5 molar; for Growth percent: SK-OV-3
NCI/ADR-RES = conditions: 10^−5 molar; for Growth percent: NCI/ADR-RES
UACC-62 = conditions: 10^−5 molar; for Growth percent: UACC-62
DU-145 = conditions: 10^−5 molar; for Growth percent: DU-145
ACHN = conditions: 10^−5 molar; for Growth percent: ACHN
LOX IMVI = conditions: 10^−5 molar; for Growth percent: LOX IMVI
RXF 393 = conditions: 10^−5 molar; for Growth percent: RXF 393
SW-620 = conditions: 10^−5 molar; for Growth percent: SW-620
SR = conditions: 10^−5 molar; for Growth percent: SR
MCF7 = conditions: 10^−5 molar; for Growth percent: MCF7
HT29 = conditions: 10^−5 molar; for Growth percent: HT29
KM12 = assay: cells; conditions: 10^−5 molar; for Growth percent: KM12
COLO 205 = conditions: 10^−5 molar; for Growth percent: COLO 205
HCT-15 = conditions: 10^−5 molar; for Growth percent: HCT-15
K-562 = conditions: 10^−5 molar; for Growth percent: K-562
HL-60(TB) = conditions: 10^−5 molar; for Growth percent: HL-60(TB)
A549/ATCC = conditions: 10^−5 molar; for Growth percent: A549/ATCC
SNB-75 = conditions: 10^−5 molar; for Growth percent: SNB-75
SN12C = conditions: 10^−5 molar; for Growth percent: SN12C
PC-3 = conditions: 10^−5 molar; for Growth percent: PC-3
CCRF-CEM = conditions: 10^−5 molar; for Growth percent: CCRF-CEM
60 cancer cell lines = assay: NCI 60-cell screen, SRB, whole panel (mean, delta, range); conditions: 10^−5 molar
NCI-H23 = conditions: 10^−5 molar; for Growth percent: NCI-H23
BT-549 = conditions: 10^−5 molar; for Growth percent: BT-549
MOLT-4 = conditions: 10^−5 molar; for Growth percent: MOLT-4
HCT-116 = conditions: 10^−5 molar; for Growth percent: HCT-116
OVCAR-5 = conditions: 10^−5 molar; for Growth percent: OVCAR-5
TK-10 = conditions: 10^−5 molar; for Growth percent: TK-10
SNB-19 = conditions: 10^−5 molar; for Growth percent: SNB-19
MDA-MB-435 = conditions: 10^−5 molar; for Growth percent: MDA-MB-435
[1] = Non-small cell lung cancer, 48 hours, SRB

## O=c1c2cc(Cl)ccc2sc2c(NCCN3CCOCC3)nc3ccccc3c12 [Compound N16, 10-Chloro-6-((2-morpholinoethyl)amino)-12H-thiochromeno[2,3-c]quinolin-12-one]
NCI-H522
  Growth percent: 76.66%
SK-MEL-5
  Growth percent: 91.61%
UO-31
  Growth percent: 54.16%
T-47D
  Growth percent: 47.63%
MDA-MB-231/ATCC
  Growth percent: 59.20%
NCI-H460
  Growth percent: 100.49%
OVCAR-8
  Growth percent: 92.43%
M14
  Growth percent: 99.59%
HOP-62
  Growth percent: 67.97%
SK-OV-3
  Growth percent: 85.34%
NCI/ADR-RES
  Growth percent: 77.03%
UACC-62
  Growth percent: 94.58%
DU-145
  Growth percent: 93.09%
ACHN
  Growth percent: 91.61%
LOX IMVI
  Growth percent: 67.43%
RXF 393
  Growth percent: 93.21%
SW-620
  Growth percent: 99.65%
SR
  Growth percent: 67.74%
MCF7
  Growth percent: 51.69%
HT29
  Growth percent: 43.13%
KM12
  Growth percent: 68.16%
COLO 205
  Growth percent: 79.39%
HCT-15
  Growth percent: 58.81%
K-562
  Growth percent: 17.67%
HL-60(TB)
  Growth percent: 104.97%
A549/ATCC
  Growth percent: 95.12%
SNB-75
  Growth percent: 60.74%
SN12C
  Growth percent: 95.98%
PC-3
  Growth percent: 67.82%
CCRF-CEM
  Growth percent: 82.21%
60 cancer cell lines; delta over panel
  Growth percent, Delta: 62.71%
60 cancer cell lines; mean over panel
  Growth percent, Mean: 80.38%
60 cancer cell lines; range over panel
  Growth percent, Range: 88.85%
NCI-H23
  Growth percent: 83.07%
BT-549
  Growth percent: 91.21%
MOLT-4
  Growth percent: 80.91%
HCT-116
  Growth percent: 81.64%
OVCAR-5
  Growth percent: 68.98%
TK-10
  Growth percent: 76.67%
SNB-19
  Growth percent: 90.44%
MDA-MB-435
  Growth percent: 98.93%

## O=c1c2cc(Cl)ccc2sc2c(NCc3ccc4c(c3)OCO4)nc3ccccc3c12 [Compound N27, 6-((Benzo[d][1,3]dioxol-5-ylmethyl)amino)-10-chloro-12H-thiochromeno[2,3-c]quinolin-12-one]
NCI-H522
  Growth percent: 78.43%
SK-MEL-5
  Growth percent: 79.86%
UO-31
  Growth percent: 80.98%
T-47D
  Growth percent: 74.41%
MDA-MB-231/ATCC
  Growth percent: 54.65%
NCI-H460
  Growth percent: 76.71%
OVCAR-8
  Growth percent: 79.45%
M14
  Growth percent: 94.93%
HOP-62
  Growth percent: 78.01%
SK-OV-3
  Growth percent: 82.87%
NCI/ADR-RES
  Growth percent: 91.11%
UACC-62
  Growth percent: 72.96%
DU-145
  Growth percent: 72.44%
ACHN
  Growth percent: 58.48%
LOX IMVI
  Growth percent: 78.69%
RXF 393
  Growth percent: 74.20%
SW-620
  Growth percent: 76.95%
SR
  Growth percent: 79.57%
MCF7
  Growth percent: 43.53%
HT29
  Growth percent: 82.91%
KM12
  Growth percent: 87.96%
COLO 205
  Growth percent: 87.63%
HCT-15
  Growth percent: 77.41%
K-562
  Growth percent: 80.37%
HL-60(TB)
  Growth percent: 112.12%
A549/ATCC
  Growth percent: 104.74%
SNB-75
  Growth percent: 57.14%
SN12C
  Growth percent: 85.53%
PC-3
  Growth percent: 78.54%
CCRF-CEM
  Growth percent: 88.86%
60 cancer cell lines; delta over panel
  Growth percent, Delta: 36.65%
60 cancer cell lines; mean over panel
  Growth percent, Mean: 81.18%
60 cancer cell lines; range over panel
  Growth percent, Range: 73.26%
NCI-H23
  Growth percent: 79.93%
BT-549
  Growth percent: 111.06%
MOLT-4
  Growth percent: 87.55%
HCT-116
  Growth percent: 69.98%
OVCAR-5
  Growth percent: 84.38%
TK-10
  Growth percent: 116.79%
SNB-19
  Growth percent: 97.62%
MDA-MB-435
  Growth percent: 91.64%

## O=c1c2cc(Cl)ccc2sc2c(NCCO)nc3ccccc3c12 [Compound N9, 10-Chloro-6-(2-ethanolamino)-12H-thiochromeno[2,3-c]quinolin-12-one]
NCI-H522; [1]
  Growth percent NCI-H522: 76.94%
SK-MEL-5; Melanoma, 48 hours, SRB
  Growth percent SK-MEL-5: 97.36%
UO-31; Renal cancer, 48 hours, SRB
  Growth percent UO-31: 51.97%
T-47D; Breast cancer, 48 hours, SRB
  Growth percent T-47D: 74.45%
MDA-MB-231/ATCC; Breast cancer, 48 hours, SRB
  Growth percent MDA-MB-231/ATCC: 66.62%
NCI-H460; [1]
  Growth percent NCI-H460: 100.97%
OVCAR-8; Ovarian cancer, 48 hours, SRB
  Growth percent OVCAR-8: 78.13%
M14; Melanoma, 48 hours, SRB
  Growth percent M14: 107.09%
HOP-62; [1]
  Growth percent HOP-62: 81.90%
SK-OV-3; Ovarian cancer, 48 hours, SRB
  Growth percent SK-OV-3: 104.57%
NCI/ADR-RES; Ovarian cancer, 48 hours, SRB
  Growth percent NCI/ADR-RES: 91.54%
UACC-62; Melanoma, 48 hours, SRB
  Growth percent UACC-62: 76.52%
DU-145; Prostate cancer, 48 hours, SRB
  Growth percent DU-145: 102.77%
ACHN; Renal cancer, 48 hours, SRB
  Growth percent ACHN: 82.25%
LOX IMVI; Melanoma, 48 hours, SRB
  Growth percent LOX IMVI: 86.96%
RXF 393; Renal cancer, 48 hours, SRB
  Growth percent RXF 393: 92.81%
SW-620; Colon cancer, 48 hours, SRB
  Growth percent SW-620: 97.18%
SR; Leukemia, 48 hours, SRB
  Growth percent SR: 60.44%
MCF7; Breast cancer, 48 hours, SRB
  Growth percent MCF7 (Table 2: MCF): 29.66%
HT29; Colon cancer, 48 hours, SRB
  Growth percent HT29: 87.36%
KM12; Colon cancer, 48 hours, SRB
  Growth percent KM12: 91.93%
COLO 205; Colon cancer, 48 hours, SRB
  Growth percent COLO 205: 99.13%
HCT-15; Colon cancer, 48 hours, SRB
  Growth percent HCT-15: 78.61%
K-562; Leukemia, 48 hours, SRB
  Growth percent K-562: 68.23%
HL-60(TB); Leukemia, 48 hours, SRB
  Growth percent HL-60(TB): 104.58%
A549/ATCC; [1]
  Growth percent A549/ATCC: 80.72%
SNB-75; CNS cancer, 48 hours, SRB
  Growth percent SNB-75: 90.05%
SN12C; Renal cancer, 48 hours, SRB
  Growth percent SN12C: 92.52%
PC-3; Prostate cancer, 48 hours, SRB
  Growth percent PC-3: 71.70%
CCRF-CEM; Leukemia, 48 hours, SRB
  Growth percent CCRF-CEM: 81.07%
60 cancer cell lines; delta over the cell panel, 48 hours, SRB
  Growth percent, Delta: 56.67%
60 cancer cell lines; mean over the cell panel, 48 hours, SRB
  Growth percent, Mean: 86.33%
60 cancer cell lines; range over the cell panel, 48 hours, SRB
  Growth percent, Range: 101.96%
NCI-H23; [1]
  Growth percent NCI-H23: 86.06%
BT-549; Breast cancer, 48 hours, SRB
  Growth percent BT-549: 131.62%
MOLT-4; Leukemia, 48 hours, SRB
  Growth percent MOLT-4: 78.76%
HCT-116; Colon cancer, 48 hours, SRB
  Growth percent HCT-116: 93.62%
OVCAR-5; Ovarian cancer, 48 hours, SRB
  Growth percent OVCAR-5: 101.56%
TK-10; Renal cancer, 48 hours, SRB
  Growth percent TK-10: 78.14%
SNB-19; CNS cancer, 48 hours, SRB
  Growth percent SNB-19: 90.96%
MDA-MB-435; Melanoma, 48 hours, SRB
  Growth percent MDA-MB-435: 94.98%
